Activity calls are given as the source filed them. The rule behind the calls is not given here.
Tested on: CCRIS mutagenicity, Ames/micronucleus/aberration tests
Test: CCRIS mutagenicity studies
[1] = Test System: AMES SALMONELLA TYPHIMURIUM, Strain/Indicator: TA98, Metabolic Activation: NONE, Method: STANDARD PLATE
[2] = Test System: AMES SALMONELLA TYPHIMURIUM, Strain/Indicator: TA100, Metabolic Activation: NONE, Method: STANDARD PLATE
[3] = Test System: AMES SALMONELLA TYPHIMURIUM, Strain/Indicator: TA102, Metabolic Activation: NONE, Method: STANDARD PLATE

Compound: CC(C)(c1ccc(O)cc1)c1ccc(O)cc1
- mutagenic call (End Point: IN VITRO CHROMOSOMAL ABERRATIONS, Test System: CHO CELLS, Metabolic Activation: RAT, LIVER, S-9, AROCLOR 1254): inactive; negative; previous trial yielded positive result at 50 ug/ml but no dose-respons
- mutagenic call (End Point: In vitro micronucleus, Test System: Human lymphoblastoid AHH-1 cells, Metabolic Activation: None): active; positive (all doses >10.8 ug/ml)
- mutagenic call (End Point: In vivo micronucleus, Test System: Bone marrow polychromatic erythrocytes, Species: Mouse, Strain/Sex: Swiss/Male, female, Route: Oral): inactive; negative
- mutagenic call (Test System: AMES SALMONELLA TYPHIMURIUM, Strain/Indicator: TA97A, Metabolic Activation: NONE, Method: STANDARD PLATE): inactive; negative
- mutagenic call (Test System: AMES SALMONELLA TYPHIMURIUM, Strain/Indicator: TA97A, Metabolic Activation: RAT LIVER S-9, PHENOBARBITAL AND BETA-NAPHTHAFLAVONE, Method: STANDARD PLATE): inactive; negative
- mutagenic call (Test System: AMES SALMONELLA TYPHIMURIUM, Strain/Indicator: TA98, Metabolic Activation: NONE, Method: PREINCUBATION): inactive; negative
- mutagenic call [1]: inactive; negative
- mutagenic call (Test System: AMES SALMONELLA TYPHIMURIUM, Strain/Indicator: TA98, Metabolic Activation: RAT LIVER S-9, AROCLOR 1254, Method: STANDARD PLATE): inactive; negative
- mutagenic call (Test System: AMES SALMONELLA TYPHIMURIUM, Strain/Indicator: TA98, Metabolic Activation: RAT LIVER S-9, PHENOBARBITAL AND BETA-NAPHTHAFLAVONE, Method: STANDARD PLATE): inactive; negative
- mutagenic call (Test System: AMES SALMONELLA TYPHIMURIUM, Strain/Indicator: TA98, Metabolic Activation: RAT LIVER S-9, PHENOBARBITAL AND BETA-NAPHTHOFLAVONE, Method: PREINCUBATION): inactive; negative
- mutagenic call (Test System: AMES SALMONELLA TYPHIMURIUM, Strain/Indicator: TA98, Metabolic Activation: S-9, Method: PREINCUBATION): inactive; negative
- mutagenic call (Test System: AMES SALMONELLA TYPHIMURIUM, Strain/Indicator: TA100, Metabolic Activation: NONE, Method: PREINCUBATION): inactive; negative
- mutagenic call [2]: inactive; negative
- mutagenic call (Test System: AMES SALMONELLA TYPHIMURIUM, Strain/Indicator: TA100, Metabolic Activation: RAT LIVER S-9, AROCLOR 1254, Method: STANDARD PLATE): inactive; negative
- mutagenic call (Test System: AMES SALMONELLA TYPHIMURIUM, Strain/Indicator: TA100, Metabolic Activation: RAT LIVER S-9, PHENOBARBITAL AND BETA-NAPHTHAFLAVONE, Method: STANDARD PLATE): inactive; negative
- mutagenic call (Test System: AMES SALMONELLA TYPHIMURIUM, Strain/Indicator: TA100, Metabolic Activation: RAT LIVER S-9, PHENOBARBITAL AND BETA-NAPHTHOFLAVONE, Method: PREINCUBATION): inactive; negative
- mutagenic call (Test System: AMES SALMONELLA TYPHIMURIUM, Strain/Indicator: TA100, Metabolic Activation: S-9, Method: PREINCUBATION): inactive; negative
- mutagenic call [3]: inactive; negative
- mutagenic call (Test System: AMES SALMONELLA TYPHIMURIUM, Strain/Indicator: TA102, Metabolic Activation: RAT LIVER S-9, PHENOBARBITAL AND BETA-NAPHTHAFLAVONE, Method: STANDARD PLATE): inactive; negative
- mutagenic call (Test System: AMES SALMONELLA TYPHIMURIUM, Strain/Indicator: TA1535, Metabolic Activation: NONE, Method: PREINCUBATION): inactive; negative
- mutagenic call (Test System: AMES SALMONELLA TYPHIMURIUM, Strain/Indicator: TA1535, Metabolic Activation: RAT LIVER S-9, PHENOBARBITAL AND BETA-NAPHTHOFLAVONE, Method: PREINCUBATION): inactive; negative
- mutagenic call (Test System: AMES SALMONELLA TYPHIMURIUM, Strain/Indicator: TA1537, Metabolic Activation: NONE, Method: PREINCUBATION): inactive; negative
- mutagenic call (Test System: AMES SALMONELLA TYPHIMURIUM, Strain/Indicator: TA1537, Metabolic Activation: RAT LIVER S-9, PHENOBARBITAL AND BETA-NAPHTHOFLAVONE, Method: PREINCUBATION): inactive; negative
- mutagenic call (Test System: CHINESE HAMSTER V-79, Strain/Indicator: V-79 (HPRT)/6-THIOGUANINE, Metabolic Activation: NONE): inactive; negative
- mutagenic call (Test System: E.COLI, Strain/Indicator: WP2UVRA, Metabolic Activation: NONE, Method: PREINCUBATION): inactive; negative
- mutagenic call (Test System: E.COLI, Strain/Indicator: WP2UVRA, Metabolic Activation: RAT LIVER S-9, PHENOBARBITAL AND BETA-NAPHTHOFLAVONE, Method: PREINCUBATION): inactive; negative

Compound: CC/C=C/C=C/C=C/C=C/C=C/OC[C@@H](O)CO
- mutagenic call [1]: active; positive
- mutagenic call (Test System: AMES SALMONELLA TYPHIMURIUM, Strain/Indicator: TA98, Metabolic Activation: NONE, Method: STANDARD PLATE (AEROBIC)): inactive; negative
- mutagenic call (Test System: AMES SALMONELLA TYPHIMURIUM, Strain/Indicator: TA98, Metabolic Activation: NONE, Method: STANDARD PLATE (ANAEROBIC)): active; positive
- mutagenic call (Test System: AMES SALMONELLA TYPHIMURIUM, Strain/Indicator: TA98, Metabolic Activation: RAT, LIVER, S-9, AROCLOR 1254, Method: STANDARD PLATE): inactive; negative
- mutagenic call (Test System: AMES SALMONELLA TYPHIMURIUM, Strain/Indicator: TA100, Metabolic Activation: NONE, Method: FLUCTUATION TEST (AEROBIC)): active; positive
- mutagenic call (Test System: AMES SALMONELLA TYPHIMURIUM, Strain/Indicator: TA100, Metabolic Activation: NONE, Method: FLUCTUATION TEST (ANAEROBIC)): active; positive
- mutagenic call [2]: active; positive
- mutagenic call (Test System: AMES SALMONELLA TYPHIMURIUM, Strain/Indicator: TA100, Metabolic Activation: NONE, Method: STANDARD PLATE (AEROBIC)): active; positive
- mutagenic call (Test System: AMES SALMONELLA TYPHIMURIUM, Strain/Indicator: TA100, Metabolic Activation: NONE, Method: STANDARD PLATE (ANAEROBIC)): inactive; negative
- mutagenic call (Test System: AMES SALMONELLA TYPHIMURIUM, Strain/Indicator: TA100, Metabolic Activation: RAT, LIVER, S-9, AROCLOR 1254, Method: PREINCUBATION): active; positive
- mutagenic call (Test System: AMES SALMONELLA TYPHIMURIUM, Strain/Indicator: TA100, Metabolic Activation: RAT, LIVER, S-9, AROCLOR 1254, Method: STANDARD PLATE): active; positive
- mutagenic call [3]: active; positive
- mutagenic call (Test System: AMES SALMONELLA TYPHIMURIUM, Strain/Indicator: TA104, Metabolic Activation: NONE, Method: STANDARD PLATE): active; positive
- mutagenic call (Test System: AMES SALMONELLA TYPHIMURIUM, Strain/Indicator: TA104, Metabolic Activation: RAT, LIVER, S-9, AROCLOR 1254, Method: STANDARD PLATE): active; positive
- mutagenic call (Test System: E. COLI, Strain/Indicator: WP2 UVRA (PKM101), Metabolic Activation: NONE, Method: STANDARD PLATE (AEROBIC)): active; positive
- mutagenic call (Test System: E. COLI, Strain/Indicator: WP2 UVRA (PKM101), Metabolic Activation: NONE, Method: STANDARD PLATE (ANAEROBIC)): inactive; negative
- mutagenic call (Test System: MOUSE LYMPHOMA, Strain/Indicator: L5178Y (TK+/TK-), Metabolic Activation: NONE, Method: SUSPENSION/PLATE): active; positive
- mutagenic call (Test System: MOUSE LYMPHOMA, Strain/Indicator: L5178Y (TK+/TK-), Metabolic Activation: RAT, LIVER, S-9, AROCLOR 1254, Method: SUSPENSION/PLATE): active; positive
- mutagenic call (Test System: Mouse lymphoma, Strain/Indicator: L5178Y (tk+/tk-), Metabolic Activation: None, Method: Suspension/plate): active; positive
- mutagenic call (Test System: Mouse lymphoma, Strain/Indicator: L5178Y (tk+/tk-), Metabolic Activation: Rat, Liver, S-9, Aroclor 1254, Method: Suspension/plate): inactive; negative
